Where no end group is shown, it is not given here. [ ]: non-standard residue; d: D form. Cit = NC(=O)NCCC[C@H](N)C(=O)O
Tests used:
[1] = tested on: peripheral blood mononuclear cells (PBMC) from HLA-DRB1*04:01 positive subjects; experiment: In vitro expansion of peptide-specific T cells and HLA class II tetramer staining; type: cell-based, human; conditions: two weeks of in vitro expansion, 10 μg/ml peptide
Procedure: (§1) Recombinant HLA-DRB1*04:01 protein was produced by the BRI Tetramer Core (Benaroya Research Institute, Seattle, WA) as previously described (Novak et al. 1999 J Clin Inv.104:R63). Soluble HLA-DRB1*04:01 monomer was purified from insect cell culture supernatants and biotinylated at a sequence-specific site using biotin ligase (Avidity) prior to dialysis into phosphate storage buffer. The biotinylated monomer was loaded with 0.2 mg/ml of peptide by incubating at 37° C. for 72 hours in the presence of 2.5 mg/ml n-octyl-β-D-glucopyranoside and 1 mM Pefabloc SC (Sigma-Aldrich). Peptide loaded monomers were conjugated into tetramers using fluorescently labeled streptavidin (Invitrogen) for 6-18 hours at room temperature at a molar ratio of 8:1.
Cryopreserved PBMCs from RA and healthy subjects were cultured at 5×10^6 cells/well in a 48 well plate in RPMI-1640+10% HPS with 10 μg/ml of peptide. IL-2 (Novartis) was added at 325 IU/ml on day 6. On day 14, cells were stained for expression of tetramer-PE, CD25 APC (BD) and CD4 FITC (BioLegend), and then characterized by immunocytofluorimetry on a FACSCanto™ (BD). The data were analyzed by FlowJo software version 10.

[2] = molecular target: HLA-DRB1*04:01 (Homo sapiens, UniProt P01903+P01911, A100K/A169T/F76Y/I96L/K127E/L162R/M171V/N62H/P40V/Q125Y/R42H/S133A/S149N/S66Y/V115G/V209L/W38E); experiment: Peptide competition binding assay to HLA-DRB1*04:01; conditions: competition with 0.01 μM biotinylated influenza HA306-318
[3] = tested on: antibodies in sera from RA and HC subjects; experiment: ELISA for detection of serum antibodies against peptides; type: binding, human; conditions: for antibody reactivity relative to threshold for positivity: Autoantibody Cohort 2
Procedure: ELISAs were used to detect antibodies against citrullinated peptides in sera from patients in Autoantibody Cohorts 1 and 2 (FIG. 6). Peptides used in the assay were synthesized by either GenScript or Pepceutical and are described in FIG. 12. The ELISAs were conducted as previously described (Riedl et al. 2001 Int J Colorectal Dis.16:285; Quarona et al. 2013 Cytometry Part B, Clinical cytometry 84:207). In brief, 96-well Nunc Maxisorp plates were coated with 10 μg/ml peptide in PBS, blocked with 2% BSA and incubated with sera diluted 1:100. Bound antibodies were detected with an HRP-conjugated anti-human IgG Fc monoclonal antibody (6043HRP, Stratech). A standard curve of positive sera was used to calculate relative antibody titers in arbitrary units (AU) for each sample. The CCP2 ELISA for Autoantibody Cohort 1 was performed as by the manufacturer's instruction (FCCP600, Axis-Shield). Cross-reactivity was analyzed in human sera that were reactive to both cTNC56 or cTNC17 and cTNC5. Sera were diluted 1:100, incubated with 1, 10 and 100 μg/ml of peptides for 2 hours, centrifuged at 10,000 g for 10 min and the supernatant added to peptide-coated plates for analysis by ELISA as described above. Positivity was defined by the cut-off of the 98% percentile of healthy control samples from Autoantibody Cohort 1.

[4] = tested on: CCP-reactive antibody (ACPA) pools from plasma and synovial fluid; experiment: Extracellular matrix peptide microarray with polyclonal CCP-pools; type: binding, human; conditions: ACPA pools at 15 μg/ml
Procedure: The custom-made microarray was performed as previously described (Steen et al. 2019 Arthritis Rheumatol. 71:196). In brief, 16-aa long peptides that covered all arginine residues of 1,610 extracellular matrix proteins and RA related proteins were synthesized in situ (Roche NimbleGen). For tenascin C, there were a total of 217 peptides including both native and citrullinated variants of each peptide synthesized. Samples tested for reactivity against TNC derived peptides included synovial and plasma ACPA pools containing CCP-reactive antibodies from 26 and 38 RA patients, respectively (Ossipova et al. 2014 Arthritis Res Ther. 16:R167; Sahlström et al. 2020 Arthritis Rheumatol. 72:1643) Paired synovial fluid and serum samples from one RA patient taken at two time points 10 years apart were also screened. ACPA pools were run at a concentration of 15 μg/ml, whereas synovial fluid and plasma or serum samples were diluted 1/100 and tested for citrulline reactivity using a NimbleGen MS200 Scanner (Roche NimbleGen). A peptide signal intensity variation (spot size) of pixels was used as a basis for calculating the median fluorescence intensities. The cutoff for positive signals was defined as 5 times the fluorescence intensity of the 98th percentile of values for a set of monoclonal antibodies without citrulline reactivity. […]

[5] = tested on: memory CD4+ T cells; experiment: Ex vivo detection of peptide-reactive T cells by multiplex HLA class II tetramers; type: cell-based, human; conditions: peripheral blood, RA n=9, HC n=7
Procedure: as §1, with “Peptide loaded monomers were conjugated into tetramers using fluorescently labeled streptavidin (Invitrogen) for 6-18 hours at room temperature at a molar ratio of 8:1.” left out
Ex vivo tetramer staining and enrichment was accomplished using previously published protocols (Rims et al. 2019 Arthritis Rheumatol. 71:518; Uchtenhagen et al. 2016 Nat Comm 7:12614). […] Samples were run on a BD LSRII flow cytometer, and data was analyzed using FlowJo software version 10. The frequency (F) of epitope-specific T cells per million memory CD4+ T cells was calculated as follows: F=(1,000,000×tetramer-positive events from enriched tube)/(100×number of memory CD4+ T cells from the “Pre” fraction). […] These served as the parent populations from which one of the four tetramer positive T-cell populations were then gated on and analyzed for surface receptor expression. […]

[6] = molecular target: T1, HLA-DRB1*04:01 (human); experiment: peptide competition assay against biotinylated HA306-318
T1 construct: MHC class II molecule; also called HLA-DR protein; recombinant HLA-DRB1*04:01 protein

In the case of “arg-TNC22: corresponding unmodified arginine-containing peptide of cit-TNC22 (FDRYRLNYSLPTGQW)”, the “immunogenicity: epitope-specific T cell expansion by HLA Class II tetramer staining” value [1] is reported as “ability to elicit T cell responses” and the “binding to HLA-DRB1*04:01” value [2] is reported as “bound”.

For “arg-TNC56: corresponding unmodified arginine-containing peptide of cit-TNC56 (QGQYELRVDLRDHGE)”, the “binding to HLA-DRB1*04:01” value [2] was “did not” and the “antibody reactivity relative to threshold for positivity” value [3] was “below the threshold for positivity in almost all subjects”.

“arg-TNC45: corresponding unmodified arginine-containing peptide of cit-TNC45 (PDGFRLSWTADEGVF)” was tested, and the “immunogenicity: epitope-specific T cell expansion by HLA Class II tetramer staining” value [1] was “ability to elicit T cell responses” and the “binding to HLA-DRB1*04:01” value [2] was “bound”.

“cit-TNC5: previously published citrullinated peptide from the C-terminal FBG domain of TNC, used as positive control (CEHSIQFAEMKL[Cit]PSNF[Cit]NLEG[Cit][Cit]KRC; not fully specified; cysteine pairing not given here) [reference compound]” was tested, and the “antibody reactivity in plasma CCP-pool” value [4] was “could be verified”, the “antibody reactivity in synovial fluid derived antibody pools” value [4] was “strong positive signal” and the “RA sera with antibodies to the peptide” value ([3]; Autoantibody Cohort 1, HLA-DRB1*04:01 and CCP positive RA n=17) was 47%. The “antibody titers / reactivity in RA sera” value ([3]; Autoantibody Cohort 1, sera diluted 1:100) was “highest”.

“MP 97-116: influenza peptide used as positive control (VKLYRKLKREITFHGAKEIS; Matrix protein 1; UniProt P03485 97-116, looked up, fragment) [reference compound]” was tested, and the “frequency of peptide-specific memory CD4+ T cells in RA compared to HC subjects” value [5] was “did not differ between RA and HC subjects”.

In the case of “arg-TNC17: corresponding unmodified arginine-containing peptide of cit-TNC17 (VSLISRRGDMSSNPA)”, the “binding to HLA-DRB1*04:01” value [2] is reported as “did not” and the “antibody reactivity relative to threshold for positivity” value [3] is reported as “below the threshold for positivity in almost all subjects”.

QGQYELRVDLRDHGE (not fully specified, See note of arg-TNC17) [arg-TNC56]: no binding [6].

VSLISRRGDMSSNPA (not fully specified) [arg-TNC17]: no binding [6].
